What was measured:
[1] = solid-state properties of the crystalline salt (stability, hygroscopicity); type: physicochemical
[2] = applied as a suitable topical formulation

With `C=CC1(C)CC(OC(=O)CSC2CC3CCC(C2)N3C)C2(C)C(C)CCC3(CCC(=O)C32)C(C)C1O.O=C(O)CCC(=O)O` (stereo not drawn) [hydrosuccinate salt, hydrosuccinate salt of mutilin 14-(exo-8-methyl-8-azabicyclo[3.2.1]oct-3-ylsulfanyl)-acetate] the “hygroscopicity of the crystalline form” value [1] was “non-hygroscopic”, the “stability of the crystalline form” value [1] was “stable” and the irritation [2] was “does not cause significant irritation”.

— patent US8207191B2, “Process, salts, composition and use” (Glaxo Group Limited, priority 2003, dated 2012)
